Values of other authors in patent US6156769A (priority 2000, dated 2000).

Tested on: pruritus
Settings: i.v. morphine

CN1CC[C@]23c4c5ccc(O)c4O[C@H]2[C@@H](O)C=C[C@H]3[C@H]1C5 [morphine]
generalized itching: about 1 % of patients
